Measured values: PubChem BioAssay (NCI)
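In this assay, cells in 96-well plates receive the compound at five concentrations for 48 hours. Endpoints are linearly interpolated between the surrounding concentrations. At the TGI there is no net growth.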

Assays:
Assay in all cases: DTP human tumour cell line panel, 48 h
COLO 205 colon = system: COLO 205 colon
EKVX NSCLC = system: EKVX NSCLC
HCT-116 colon = system: HCT-116 colon
HL-60(TB) leukemia = system: HL-60(TB) leukemia
HS 578T breast = system: HS 578T breast
M14 melanoma = system: M14 melanoma
NCI-H226 lung = system: NCI-H226 lung
RPMI-8226 leukemia = system: RPMI-8226 leukemia
RXF 393 renal = system: RXF 393 renal
SF-268 CNS = system: SF-268 CNS
SF-295 CNS = system: SF-295 CNS
SK-MEL-5 melanoma = system: SK-MEL-5 melanoma
SN12C renal = system: SN12C renal
SNB-19 CNS = system: SNB-19 CNS
SNB-75 CNS = system: SNB-75 CNS
TK-10 renal = system: TK-10 renal
U251 CNS = system: U251 CNS
UACC-62 melanoma = system: UACC-62 melanoma
SF-539 CNS = system: SF-539 CNS

Row | SMILES | TGI (COLO 205 colon) [µM] | TGI (EKVX NSCLC) [µM] | TGI (HCT-116 colon) [µM] | TGI (HL-60(TB) leukemia) [µM] | TGI (HS 578T breast) [µM] | TGI (M14 melanoma) [µM] | TGI (NCI-H226 lung) [µM] | TGI (RPMI-8226 leukemia) [µM] | TGI (RXF 393 renal) [µM] | TGI (SF-268 CNS) [µM] | TGI (SF-295 CNS) [µM] | TGI (SK-MEL-5 melanoma) [µM] | TGI (SN12C renal) [µM] | TGI (SNB-19 CNS) [µM] | TGI (SNB-75 CNS) [µM] | TGI (TK-10 renal) [µM] | TGI (U251 CNS) [µM] | TGI (UACC-62 melanoma) [µM] | TGI (SF-539 CNS) [µM]
1 | N=C(N)C(N=Nc1ccccc1)C(N)=O (stereo unspecified) | > 100 | > 100 | > 100 | > 100 | > 100 | > 100 | > 100 | > 100 | > 100 | > 100 | > 100 | > 100 | > 100 | > 100 | > 100 | > 100 | > 100 | > 100 | 
2 | COc1cccc(Nc2nc(-c3cccs3)nc3ccc(Br)cc23)c1 | > 100 | > 100 | > 100 | > 100 | > 100 | > 100 | > 100 | > 100 |  | > 100 | > 100 | > 100 | > 100 | 78.7 |  | > 100 | > 100 | > 100 | > 100
3 | Nc1ccc2nc3ccc(N)cc3[n+](-c3ccccc3)c2c1 | 26.9 | > 100 | 97.3 | > 100 | > 100 | > 100 |  | > 100 | > 100 | > 100 | > 100 | 96.4 | > 100 | > 100 | > 100 | > 100 | > 100 | > 100 | > 100
4 | C=CC(C)(C)C(=C)C(=O)N(C)c1ccccc1I | > 100 | > 100 | > 100 |  | > 100 | > 100 | > 100 | > 100 | > 100 | > 100 | > 100 | > 100 | > 100 | > 100 | > 100 | > 100 | > 100 | > 100 | 
5 | CCN(CC)c1ccc(C2SCC(=O)N2c2ccc(NC(=O)c3ccc(N4C(=O)CSC4c4ccc(N(CC)CC)cc4)cc3)cc2)cc1 (stereo unspecified) | > 100 | > 100 | > 100 |  | > 100 | > 100 |  |  | > 100 | > 100 | > 100 | > 100 | > 100 | > 100 | > 100 | > 100 | > 100 | > 100 | > 100
6 | COc1cc2nc(-c3cccs3)nc(N3C(c4ccc(O)cc4)=NNC(=O)c4ccccc43)c2cc1OC | 52.1 | 75.6 | 86 |  | > 100 | 79.4 | 41.4 | 47.9 | 39.6 | 77.4 | 39.4 | > 100 | 50.2 | > 100 | 64 | 70.5 | 75.9 | 43 | 23.6
7 | CN(C)CCCNc1ncnc2nc[nH]c12 | > 100 | > 100 | > 100 |  | > 100 | > 100 | > 100 | > 100 | > 100 | > 100 | > 100 | > 100 | > 100 | > 100 |  | > 100 | > 100 | > 100 | 
8 | Cc1cccc2c(=O)c3c(O)cc(O)cc3[nH]c12 | > 10 | > 10 | > 10 |  | > 10 | > 10 | > 10 | > 10 | > 10 | > 10 | > 10 | > 10 | > 10 | > 10 | > 10 | > 10 | > 10 | > 10 | > 10
9 | CCO[C@@H]1CCC(S(=O)c2ccc(C)cc2)=CO1 (stereo partly specified) | > 100 | > 100 | > 100 | > 100 | > 100 |  | > 100 | > 100 | > 100 | > 100 | > 100 | > 100 | > 100 | > 100 | > 100 | > 100 | > 100 | > 100 | 
10 | N#CCCSC1SC(=C2SC3=C(SCCS3)S2)SC1SCCC#N (stereo unspecified) | > 100 | > 100 | > 100 | > 100 | > 100 | > 100 |  |  | > 100 | > 100 | > 100 | > 100 | > 100 | > 100 |  | > 100 | > 100 | > 100 | > 100
11 | CCOC(=O)NC(C(=O)OCC)C(F)(F)F (stereo unspecified) | > 100 | > 100 | > 100 | 69.9 | > 100 | > 100 |  | > 100 |  | > 100 | > 100 | > 100 | > 100 | > 100 | > 100 | > 100 | > 100 |  | > 100
12 | COC(=O)[C@@H](O)[C@]1(C(=O)OC)C2O[C@@H](OC)[C@@H]1CCCCCC[C@H]2O | > 100 | > 100 | > 100 |  | > 100 | > 100 | > 100 | > 100 | > 100 | > 100 | > 100 | > 100 | > 100 | > 100 | > 100 | > 100 | > 100 | > 100 | > 100
13 | c1ccc(-c2ccc(-c3cc4ccccc4[nH]3)cc2)cc1 | > 100 | > 100 | > 100 | > 100 | > 100 | > 100 | > 100 | > 100 |  | > 100 | > 100 | > 100 | > 100 | > 100 | > 100 | > 100 | > 100 | > 100 | > 100
14 | C=C[C@H]1CC[C@H]2[C@@H]3CC=C4C[C@@H](OC5OCC(O)C(O)C5O)CC[C@]4(C)[C@H]3CC[C@]12C (stereo partly specified) | > 100 |  | 28.4 | > 100 | 48.3 | 40.9 | 34.6 | > 100 |  | 36.2 | 29.7 | > 100 | 33.2 | 65.9 |  |  | 30.5 | 54.3 | 28.6
15 | C/C(=N\NC(=S)NC1CCCC1)c1ccccn1 | 26.8 | > 100 | 3.48 |  | > 100 | 15.7 | 15 | 1.99 | 29.1 | > 100 | > 43.6 | 13.2 | > 100 | > 100 | > 100 | > 100 | > 100 | 7.8 | 7.52
16 | COc1ccc(Cc2c(N)[nH]c(=O)n(C)c2=O)cc1 | > 100 | > 100 | > 100 |  | > 100 | > 100 | > 100 | > 100 | > 100 | > 100 | > 100 | > 100 | > 100 | > 100 | > 100 | > 100 | > 100 | > 100 | > 100
17 | O=C(Cn1cc(F)c(=O)[nH]c1=O)C12CC3CC(CC(C3)C1)C2 | > 100 | > 100 | > 100 | > 100 | > 100 | > 100 |  | > 100 | > 100 | > 100 | > 100 | > 100 | > 100 | > 100 | > 100 | > 100 | > 100 | > 100 | > 100
18 | COC(=O)C12OC(C)(C(CC(=O)OC(C)(C)C)C1=O)C1C(=O)N(c3ccccc3)C(=O)C12 (stereo unspecified) | > 100 |  | > 100 |  | > 100 | > 100 | > 100 | > 100 | > 100 | > 100 | > 100 | > 100 | > 100 | > 100 | > 100 | > 100 | > 100 | > 100 | 
19 | COc1ccc(C(=O)c2sc(Nc3ccccc3)nc2N)cc1 |  | > 100 |  |  | > 100 | > 100 | > 100 | > 100 | > 100 | > 100 | > 100 | > 100 | > 100 | > 100 |  | > 100 | > 100 | > 100 | > 100
20 | O=C1NC(=S)NC(=O)C1C(c1ccc([N+](=O)[O-])cc1)C1C(=O)NC(=S)NC1=O | > 100 | > 100 | > 100 | > 100 | > 100 | > 100 | > 100 | > 100 | > 100 |  | > 100 | > 100 | > 100 | > 100 |  | > 100 | > 100 | > 100 | 
21 | c1cc(CSP234N5CCN2CCN3CCN4CC5)ccc1CSP123N4CCN1CCN2CCN3CC4 | > 100 | > 100 | > 100 | 79.8 | > 100 | > 100 |  | 84.6 |  | > 100 | > 100 | > 100 | > 100 | > 100 | > 100 | > 100 | > 100 | > 100 | > 100
